Like-named read-outs stand apart in the source and are kept apart here.
Legend:
[1] = molecular target: T1, human phenylalanine hydroxylase (hPAH) (Homo sapiens, UniProt P00439); test: Time-dependent loss of hPAH activity at 42 °C; assay type: biochemical; settings: 100 μM compound; for protective effect on hPAH activity over time: up to 120 min at 42 °C; for remaining activity at 100 µM: read-out: hPAH residual activity, % of control sample
T1 construct: Recombinant full-length wild-type (WT) hPAH was expressed in E. coli Top10 cells in fusion with a hexa-histidyl peptide; made in house; host or cells: E. coli Top10
T1 sequence (P00439 1-452): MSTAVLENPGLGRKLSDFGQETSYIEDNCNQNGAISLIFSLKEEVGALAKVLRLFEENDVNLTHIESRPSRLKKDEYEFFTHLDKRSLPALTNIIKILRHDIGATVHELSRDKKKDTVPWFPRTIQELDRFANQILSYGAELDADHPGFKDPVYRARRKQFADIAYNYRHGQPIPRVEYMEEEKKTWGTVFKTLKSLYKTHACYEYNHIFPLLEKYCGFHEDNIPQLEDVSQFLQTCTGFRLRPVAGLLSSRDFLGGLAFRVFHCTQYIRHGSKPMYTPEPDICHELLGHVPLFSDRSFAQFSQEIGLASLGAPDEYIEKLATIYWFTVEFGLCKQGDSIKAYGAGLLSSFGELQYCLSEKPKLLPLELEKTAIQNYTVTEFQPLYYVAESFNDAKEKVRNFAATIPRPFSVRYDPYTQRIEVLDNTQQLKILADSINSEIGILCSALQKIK
Experimental: The hPAH time-dependent loss of activity at a fixed temperature was assessed in a period of 120 min, in the absence and presence of compounds. In these assays, the enzymatic reaction was performed essentially as described above for the Phe/3HQ-A condition. Compounds (100 μM) were pre-incubated with the enzyme at 42 °C. After a 30, 45, 60, 90 and 120 min period, an aliquot of the protein (5 μg) was incubated, at 37 °C, with 100 μM L-Phe for 4 min, and the reaction proceeded as above at 37 °C [19].

[2] = molecular target: T1, human phenylalanine hydroxylase (hPAH); test: Limited proteolysis of hPAH by trypsin; settings: 100 μM in 1% DMSO, 25 °C, trypsin:hPAH 1:200; control 0.41 ± 0.03
Experimental: Limited proteolysis of purified hPAH was performed as previously described, at 25 °C in SEC buffer and with a trypsin (Sigma-Aldrich) to hPAH ratio of 1:200 (by mass; final hPAH protein concentration 300 μg/mL), in the presence of 100 µM of 3HQ derivatives or 1% DMSO. Control assays were also performed in the presence of 100 μM and 1 mM L-Phe. At different time points (0 to 60 min), aliquots of the reaction were mixed with soybean trypsin inhibitor (Sigma-Aldrich) at a protease to inhibitor ratio of 1:1.5 (by mass) and analyzed by SDS-PAGE (10% polyacrylamide). The band corresponding to full-length hPAH was quantified by densitometric analysis using the Quantity One 1D software v4.6.3 (Bio-Rad). Data were fitted to a single exponential decay equation to obtain the decay constant of proteolysis (kP). Assays were performed in duplicate and data represent the mean ± SEM.

trypsin = test: Trypsin activity control with Z-Gly-Gly-Arg-AMC; assay type: biochemical; settings: 100 μM compound; for relative (residual) trypsin activity: 1% DMSO control = 100%; for Trypsin Abs/min: control 512 ± 11
Experimental: To rule out compounds that inhibit/inactivate trypsin, changes in the cleavage rate of N-(Benzyloxy)carbonyl-glycylglycylarginyl-7-amido-4-methylcoumarin (Z–Gly–Gly–Arg–AMC; Bachem, Bubendorf, Switzerland), a synthetic substrate of trypsin, were monitored by fluorimetric measurements in a microplate reader (FLUOstar Omega; BMGLabtech, Ortenberg, Germany). The assays (n = 3) were performed in a 96-well plate, in SEC buffer and in a final volume of 200 μL containing 1.5 μg/mL of trypsin, 50 μM of Z–Gly–Gly–Arg–AMC and 100 μM of 3HQs derivatives. Fluorescence was measured in real-time, with λexc 360 nm and λem 460 nm, during 30 min at 25 °C. Controls were performed using substrate alone with 1% DMSO (negative control) and trypsin with no compounds and 1% DMSO (positive control).

[3] = molecular target: T1, human phenylalanine hydroxylase (hPAH); test: Surface plasmon resonance, immobilized hPAH; assay type: binding; settings: for Kd / KD (steady-state affinity constant): 25 °C, 3HQs up to 200 μM, no saturation (lower limits); for Kd: read-out: KD (steady-state affinity constant)
Experimental: The affinity of hPAH for 3HQs was evaluated by surface plasmon resonance (SPR) using a Biacore 4000 (GE Healthcare) instrument. All assays were carried out at 25 °C. Optimization of hPAH immobilization on a carboxymethylated dextran (CM5) matrix of the sensor chip was initiated by performing a pH scouting, using as buffers 10 mM sodium acetate (pH 5.0, 5.2, 5.5 and 5.8), 10 mM Bis-Tris (pH 6.0, 6.2 and 6.5), and 10 mM sodium phosphate (pH 7.0). hPAH was diluted to 10 µg/mL in the best immobilization buffer (10 mM sodium acetate pH 5.5) and immobilized onto the CM5 sensor chip using the standard amine coupling procedure. The HBS-N buffer, consisting of 10 mM HEPES pH 7.4 and 150 mM NaCl, was used as background buffer. Prior to immobilization, the carboxymethylated surface of the chip was activated with a 1:1 ratio of 400 mM 1-ethyl-3-(3-dimethylaminopropyl)-carbodiimide and 100 mM N-hydroxysuccinimide for 10 min. The hPAH was coupled to the surface with a 1 to 2 min injection time at a flow rate of 10 μL/min in order to reach 2000 to 5000 RU. The remaining activated carboxymethylated groups were blocked with a 7 min injection of 1 M ethanolamine pH 8.5.
The 3HQs were directly diluted in running buffer (10 mM HEPES, 150 mM NaCl, 5 mM MgCl2, 0.1 mM EDTA, 0.05% (v/v) Tween-20, 1 mM DTT, pH 7.2, and 2% DMSO) and injected at ten different concentrations using two-fold dilutions series, from 200 µM to ≈ 0.4 μM. The interaction between hPAH and L-Phe in the ≈ 2–1000 μM range was also analyzed, for comparison with literature values. Moreover, L-Phe (at 1 mM) was used as a positive control to collect information on surface integrity and activity throughout the experiment. For competition experiments, 1 mM L-Phe was added to the running buffer. All sensorgrams were processed by first subtracting the binding response recorded from the control surface (reference spot), followed by subtracting an average of the buffer blank injections from the reaction spot. Interactions were assessed from the obtained plots of steady-state SPR response levels against 3HQs concentration, employing the provided Biacore 4000 evaluation software.

SMILES | protective effect on hPAH activity over time [1] | proteolytic rate (kP) [2] [min⁻¹] | relative (residual) trypsin activity (trypsin) [%] | Trypsin Abs/min (trypsin) [Abs/min] | ΔRU reduction in the presence of L-Phe ([3]; 1 mM L-Phe in running buffer) [%] | Kd [3] [µM] | remaining activity at 100 µM ([1]; 60 min at 42 °C) [%] | remaining activity at 100 µM ([1]; 90 min at 42 °C) [%] | remaining activity at 100 µM ([1]; 120 min at 42 °C) [%] | KD (steady-state affinity constant) [3]
CCOC(=O)[C@H](Cc1ccccc1)NC(=O)c1c(O)c(=O)[nH]c2ccc(OC(F)(F)F)cc12 [Compound 3] | protective effect was not observed | 0.29 ± 0.04 | 79 | 403 ± 12 | > 50 | ≥ 121 | – | – | – | –
N[C@@H](Cc1ccccc1)C(=O)O [L-Phe, L-phenylalanine, reference compound] | – | 0.15 ± 0.01 | – | – | – | 47 ± 8 | – | – | – | –
COC(=O)CC[C@H](NC(=O)c1c(O)c(=O)[nH]c2ccc(OC(F)(F)F)cc12)C(=O)OC [Compound 9] | – | 0.38 ± 0.04 | 71 | 362 ± 9 | – | – | 136 ± 7 | 121 ± 32 | 176 ± 32 | at least mM affinity
O=C(NCCc1ccccc1)c1c(O)c(=O)[nH]c2ccc(OC(F)(F)F)cc12 [Compound 8] | protective effect was not observed | 0.30 ± 0.01 | 62 | 319 ± 7 | – | ≥ 200 | – | – | – | –
COC(=O)CNC(=O)c1c(O)c(=O)[nH]c2ccc(OC(F)(F)F)cc12 [Compound 11] | – | 0.41 ± 0.01 | 92 | 470 ± 11 | – | – | – | 117 ± 33 | 168 ± 64 | at least mM affinity

— article PMC8003416, “Modulation of Human Phenylalanine Hydroxylase by 3-Hydroxyquinolin-2(1H)-One Derivatives” (Biomolecules, 2021)
